Experimental data reported in the supplement of paper PMC10307832.

Experiments:
Test in all cases: relative viability (nuclei count vs DMSO), 5 days (fraction); higher = more cells survive
NCI-H661 = tested on: NCI-H661
Outline: (§1)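 Each reported value is a median over duplicate plates. It expresses relative viability: treated-well nuclei count divided by vehicle-well nuclei count. Lung cancer cell lines in 1536-well plates were dosed by pin tool a day after seeding, alone with one drug or with a fixed anchor-drug dose plus five library-drug doses (not always all listed) in √10 steps, and nuclei were counted after 5 days.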

NCI-H647 = tested on: NCI-H647
Outline: as §1

LOU-NH91 = tested on: LOU-NH91
Outline: as §1

NCI-H2126 = tested on: NCI-H2126
Outline: as §1

NCI-H2085 = tested on: NCI-H2085
Outline: as §1

NCI-H1975 = tested on: NCI-H1975
Outline: as §1

HARA = tested on: HARA
Outline: as §1

NCI-H1651 = tested on: NCI-H1651
Outline: as §1

BEN = tested on: BEN
Outline: as §1

CAL-12T = tested on: CAL-12T
Outline: as §1

NCI-H1666 = tested on: NCI-H1666
Outline: as §1

RERF-LC-KJ = tested on: RERF-LC-KJ
Outline: as §1

LCLC-103H = tested on: LCLC-103H
Outline: as §1

NCI-H1944 = tested on: NCI-H1944
Outline: as §1

NCI-H520 = tested on: NCI-H520
Outline: as §1

NCI-H596 = tested on: NCI-H596
Outline: as §1

NCI-H1734 = tested on: NCI-H1734
Outline: as §1

NCI-H460 = tested on: NCI-H460
Outline: as §1

SW 900 = tested on: SW 900
Outline: as §1

A-427 = tested on: A-427
Outline: as §1

NCI-H838 = tested on: NCI-H838
Outline: as §1

NCI-H727 = tested on: NCI-H727
Outline: as §1

## CN1CCN(CCOc2cc(OC3CCOCC3)c3c(Nc4c(Cl)ccc5c4OCO5)ncnc3c2)CC1 [Saracatinib] + CC(=O)Nc1cccc(-n2c(=O)n(C3CC3)c(=O)c3c(Nc4ccc(I)cc4F)n(C)c(=O)c(C)c32)c1 [Trametinib] (partner 0.02 µM)
NCI-H661; first compound 0.02 µM
  relative viability: 0.568
NCI-H661; first compound 0.2 µM
  relative viability: 0.572
NCI-H661; first compound 0.6325 µM
  relative viability: 0.6
NCI-H661; first compound 2 µM
  relative viability: 0.362
NCI-H647; first compound 0.02 µM
  relative viability: 0.449
NCI-H647; first compound 0.2 µM
  relative viability: 0.381
NCI-H647; first compound 0.6325 µM
  relative viability: 0.39
NCI-H647; first compound 2 µM
  relative viability: 0.255
LOU-NH91; first compound 0.02 µM
  relative viability: 0.731
LOU-NH91; first compound 0.2 µM
  relative viability: 0.694
LOU-NH91; first compound 0.6325 µM
  relative viability: 0.758
LOU-NH91; first compound 2 µM
  relative viability: 0.636
NCI-H2126; first compound 0.02 µM
  relative viability: 0.592
NCI-H2126; first compound 0.2 µM
  relative viability: 0.509
NCI-H2126; first compound 0.6325 µM
  relative viability: 0.551
NCI-H2126; first compound 2 µM
  relative viability: 0.517
NCI-H2085; first compound 0.02 µM
  relative viability: 0.482
NCI-H2085; first compound 0.2 µM
  relative viability: 0.541
NCI-H2085; first compound 0.6325 µM
  relative viability: 0.497
NCI-H2085; first compound 2 µM
  relative viability: 0.404
NCI-H1975; first compound 0.02 µM
  relative viability: 0.37
NCI-H1975; first compound 0.2 µM
  relative viability: 0.412
NCI-H1975; first compound 0.6325 µM
  relative viability: 0.391
NCI-H1975; first compound 2 µM
  relative viability: 0.267
HARA; first compound 0.02 µM
  relative viability: 0.688
HARA; first compound 0.2 µM
  relative viability: 0.624
HARA; first compound 0.6325 µM
  relative viability: 0.836
HARA; first compound 2 µM
  relative viability: 0.344
NCI-H1651; first compound 0.02 µM
  relative viability: 0.837
NCI-H1651; first compound 0.2 µM
  relative viability: 0.593
NCI-H1651; first compound 0.6325 µM
  relative viability: 0.907
NCI-H1651; first compound 2 µM
  relative viability: 0.877
BEN; first compound 0.02 µM
  relative viability: 1.04
BEN; first compound 0.2 µM
  relative viability: 1.15
BEN; first compound 0.6325 µM
  relative viability: 1.17
BEN; first compound 2 µM
  relative viability: 1.13
CAL-12T; first compound 0.02 µM
  relative viability: 0.394
CAL-12T; first compound 0.2 µM
  relative viability: 0.373
CAL-12T; first compound 0.6325 µM
  relative viability: 0.475
CAL-12T; first compound 2 µM
  relative viability: 0.323
NCI-H1666; first compound 0.02 µM
  relative viability: 0.829
NCI-H1666; first compound 0.2 µM
  relative viability: 0.939
NCI-H1666; first compound 0.6325 µM
  relative viability: 1.06
NCI-H1666; first compound 2 µM
  relative viability: 0.823
RERF-LC-KJ; first compound 0.02 µM
  relative viability: 0.907
RERF-LC-KJ; first compound 0.2 µM
  relative viability: 0.869
RERF-LC-KJ; first compound 0.6325 µM
  relative viability: 0.916
RERF-LC-KJ; first compound 2 µM
  relative viability: 0.687
LCLC-103H; first compound 0.02 µM
  relative viability: 0.716
LCLC-103H; first compound 0.2 µM
  relative viability: 0.58
LCLC-103H; first compound 0.6325 µM
  relative viability: 0.751
LCLC-103H; first compound 2 µM
  relative viability: 0.656
NCI-H1944; first compound 0.02 µM
  relative viability: 0.421
NCI-H1944; first compound 0.2 µM
  relative viability: 0.391
NCI-H1944; first compound 0.6325 µM
  relative viability: 0.417
NCI-H1944; first compound 2 µM
  relative viability: 0.308
NCI-H520; first compound 0.02 µM
  relative viability: 0.703
NCI-H520; first compound 0.2 µM
  relative viability: 0.53
NCI-H520; first compound 0.6325 µM
  relative viability: 0.586
NCI-H520; first compound 2 µM
  relative viability: 0.273
NCI-H596; first compound 0.02 µM
  relative viability: 0.636
NCI-H596; first compound 0.2 µM
  relative viability: 0.722
NCI-H596; first compound 0.6325 µM
  relative viability: 0.648
NCI-H596; first compound 2 µM
  relative viability: 0.584
NCI-H1734; first compound 0.02 µM
  relative viability: 0.7
NCI-H1734; first compound 0.6325 µM
  relative viability: 0.645
NCI-H1734; first compound 2 µM
  relative viability: 0.611
NCI-H460; first compound 0.02 µM
  relative viability: 0.215
NCI-H460; first compound 0.2 µM
  relative viability: 0.139
NCI-H460; first compound 0.6325 µM
  relative viability: 0.129
NCI-H460; first compound 2 µM
  relative viability: 0.056
SW 900; first compound 0.02 µM
  relative viability: 0.624
SW 900; first compound 0.2 µM
  relative viability: 0.443
SW 900; first compound 0.6325 µM
  relative viability: 0.647
SW 900; first compound 2 µM
  relative viability: 0.529
A-427; first compound 0.02 µM
  relative viability: 0.764
A-427; first compound 0.2 µM
  relative viability: 0.738
A-427; first compound 0.6325 µM
  relative viability: 0.911
A-427; first compound 2 µM
  relative viability: 0.672
NCI-H838; first compound 0.02 µM
  relative viability: 0.54
NCI-H838; first compound 0.2 µM
  relative viability: 0.497
NCI-H838; first compound 0.6325 µM
  relative viability: 0.47
NCI-H838; first compound 2 µM
  relative viability: 0.425
NCI-H727; first compound 0.02 µM
  relative viability: 0.369
NCI-H727; first compound 0.2 µM
  relative viability: 0.402
NCI-H727; first compound 0.6325 µM
  relative viability: 0.379
NCI-H727; first compound 2 µM
  relative viability: 0.308
